Source: patent publication US20250127778A1, “CANCER IMMUNOTHERAPY COMPOSITION CONTAINING INTERACTION INHIBITOR OF STING AND TRIM29 AS ACTIVE INGREDIENT” (SPARK BIOPHARMA, INC, priority 2021, published 2025)

Key:
CT26 tumor = assay: Tumor growth in CT26 in vivo syngeneic mouse model; settings: CT26, intratumoral, FIG. 23
Method: (§1) 2×10^5 CT26 cell lines were prepared in 50 μL culture medium and subcutaneously injected. […] The cGAMP solution was manufactured with a final composition of PEG400:distilled water=40:60, and 20 μL was injected each time. The solution of the compound of Formula 1 was manufactured with the composition of DMSO:PEG400:distilled water=2:40:58, and 20 μL was injected each time. The cGAMP solution was injected once every two days, four times in total, and the solution of the compound of Formula 1 was injected once every four days, two times in total, starting with the second administration of cGAMP. The size of the tumor was measured by using calipers every two days, and the volume thereof was calculated as (length×width×height/2). The body weight of the mice was also measured every two days.

[1] = test system: bone-marrow derived dendritic cells (BMDC) and OT-1 T cells; assay: BMDC antigen presentation to OT-1 T cells with OVA antigen; type: cell-based, mouse; settings: OVA antigen directly treated, FIG. 18
Method: It was confirmed that the compound of Formula 1 increased the antigen presentation efficacy of bone-marrow derived dendritic cells (BMDC) of a STING agonist to cytotoxic T cells (CD8^+ T cells).
Specifically, mouse bone marrow-derived cells were obtained from the femur and tibia of 8-week-old female C57BL/6 mice. 2×10^6 of cells were cultured in 2 mL of a MLR medium (RPMI 1640 medium supplemented with 10% FBS, 1% 1M HEPES, 1% glutamine, and 1% antibiotic-antimycotic) supplemented with 10 ng/ml mGM-CSF and 5 ng/ml IL-4 to be differentiated into dendritic cells (BMDC). On the third day from the start of cell culturing, 2 mL of the MLR medium was added. Additionally, on the sixth day, 2×10^6 dendritic cells were treated with 50 μg/mL OVA protein and/or 100 ng/ml lipopolysaccharide (LPS), and cGAMP and/or the compound represented by Formula 1 at various concentrations. Thereafter, the cells were cultured at 37° C. in a 5% CO2 incubator for 24 hours, and then flow cytometry of dendritic cell activation markers (CD80, CD86, MHC II) was performed. Subsequently, 5×10^4 dendritic cells were incubated with 2×10^5 CFSE-labeled OT-1 T cells (OVA-specific CD8^+ T cells) to observe OT-1 T cell proliferation.

STING mRNA = assay: qRT-PCR of STING mRNA in Raw264.7 cells; type: cell-based, mouse; settings: FIG. 17
[2] = test system: phosphorylation of downstream signaling proteins TBK1 and IRF3; assay: Western blotting of STING sub-immune signaling pathway activation; type: cell-based; settings: in combination with cGAMP; FIG. 7
Method: First, the A431 cell line was seeded in a transparent 12-well plate and cultured for one day. Thereafter, the cells were treated with the compounds of Formulas 1 to 6, respectively, and then cultured for additional 24 hours. Finally, after supernatant culture medium of the cells was removed, the remaining supernatant was diluted and removed with PBS (phosphate buffer saline) to prepare a Western blotting sample. All procedures for preparing Western blotting sample were performed at 4° C. […] The protein concentration of the supernatant was measured by using the Micro BCA™ protein assay kit (ThermoFisher) according to the protocol of the manufacturer. […] The treated samples were analyzed by SDS-PAGE, then transferred to a PVDF membrane, and cultured in a TBST solution containing 4% BSA for 30 minutes. […] Finally, after four TBST washing processes, the solution was developed with an ECL (enhanced chemiluminescence) prime solution of Amersham, the chemical luminescence signal was measured by using ChemiDoc MP of Bio-Rad Laboratories, Inc., the obtained results were quantified by using the ImageLab 6.0 program, and the results were plotted by using the Prism 8.0 program. […]

[3] = test system: bone-marrow derived dendritic cells (BMDC) and OT-1 T cells; assay: BMDC cross-antigen presentation with killed MC38 or MC38-OVA tumor cells; type: cell-based, mouse; settings: with cGAMP, FIG. 19
Method: In the same manner as <Experimental Example 7> above, mouse bone marrow-derived cells were obtained and differentiated. On the sixth day, 2×10^6 dendritic cells (BMDC) were co-cultured with 2×10^6 of MC38 or MC38-OVA tumor cells frozen-thawed three times and treated with cGAMP and/or the compound of Formula 1 in various concentrations. The cells were cultured at 37° C. in a 5% CO2 incubator for 24 hours, and then flow cytometry of dendritic cell activation markers (CD80, CD86, MHC II) was performed. Then, 5×10^4 cells were incubated with 2×10^5 CFSE-labeled OT-1 T cells (OVA-specific CD8^+ T cells) to observe OT-1 T cell proliferation.

[4] = Body weight and toxicity signals in CT26 syngeneic mouse model; type: in vivo; settings: treated individually or in combination, FIG. 24
Method: as §1

[5] = combination with cGAMP compared with the control group

With `COc1ccc(CC2=CN(c3ccc(C(=O)NC[C@H]4CCCO4)cc3[N+](=O)[O-])[C@H](C(C)C)C(=O)N2Cc2ccc(O)cc2)cc1` [Formula 1, 4-((R)-4-(4-hydroxybenzyl)-2-isopropyl-5-(4-methoxybenzyl)-3-oxo-3,4-dihydropyrazin-1 (2H)-yl)-3-nitro-N-(((R)-tetrahydrofuran-2-yl)methyl)benzamide] the tumor growth (CT26 tumor; combination with cGAMP compared with single treatment with cGAMP) was “inhibited in a concentration-dependent manner”, the tumor growth (CT26 tumor; [5]) was “inhibited” and the “weight of the tumor extracted on the final day” value (CT26 tumor; [5]) was “reduced”. For the same compound, the “OT-1 T cell proliferation (BMDC activation by cGAMP and antigen presentation efficacy)” value [1] was “promoted cell proliferation in a concentration-dependent manner”, the “relation of STING increase to RNA transcription (STING mRNA)” value (STING mRNA) was “not related to RNA transcription” and the “degree of phosphorylation of TBK1 and IRF3” value [2] was “further increased”. For the same compound, the “OT-1 T cell proliferation (cross-antigen presentation)” value ([3]; MC38 control group) was “such an effect did not occur at all”, the “OT-1 T cell proliferation (cross-antigen presentation)” value ([3]; killed MC38-OVA cells, concentration-dependent) was “promoted cell proliferation” and the “body weight change or signal of toxicity” value [4] was “significant change in body weight or signal of toxicity was not observed”.
